Results: article PMC11494653, “Teixobactin “Swapmers” with L Tail Stereochemistry Retain Antibiotic Activity” (The Journal of Organic Chemistry, 2024)
Positions of bridges follow the written chain, without caps; N, C: chain ends. Non-standard residues stand in square brackets, D forms with d. Residues, ends and D or L forms follow the SMILES beside them. Chains are numbered I, II in the order given. NMeF = CN[C@@H](Cc1ccccc1)C(=O)O

Experiments:
Type in all cases: cell-based
[1] = test system: Staphylococcus aureus (MSSA) ATCC 29213; experiment: microbe, parasite or virus in culture; conditions: ATCC 29213, 16 h
Source text: (§1) We determined the MIC values of these teixobactin swapmer prodrugs against the Gram-positive bacteria Bacillus subtilis, Staphylococcus epidermidis, methicillin-susceptible Staphylococcus aureus (MSSA), and methicillin-resistant Staphylococcus aureus (MRSA) in a broth microdilution assay as described previously.[9],[10] We used the antibiotic vancomycin as a positive control and the Gram-negative bacterium Escherichia coli as a negative control. The MIC values for Lys10-teixobactin 1, Lys10-teixobactin prodrug 2, Arg10-teixobactin 6, and Arg10-teixobactin prodrug 7 are shown in Table 1 for comparison with the swapmer analogues.
(§2) We performed minimum inhibitory concentration (MIC) assays as previously described.[9] A concise procedure is detailed below.
(§3) Stock solutions of teixobactin analogues were prepared gravimetrically by dissolving an appropriate amount of peptide in 20 mg/mL sterile DMSO. The stock solutions were stored at −20 °C for subsequent experiments.
(§4) Bacillus subtilis (ATCC 6051), Staphylococcus epidermidis (ATCC 14990), methicillin-susceptible Staphylococcus aureus (MSSA) (ATCC 29213), and Escherichia coli (ATCC 10798) were cultured from glycerol stocks in Mueller-Hinton broth containing 0.002% polysorbate 80 overnight in a shaking incubator at 37 °C. Methicillin-resistant Staphylococcus aureus (MRSA) (ATCC 700698) was cultured from a glycerol stock in brain hearth infusion broth containing 0.002% polysorbate 80 overnight in a shaking incubator at 37 °C. After overnight incubation, each culture was diluted with the appropriate media (containing 0.002% polysorbate 80) to 1 × 10^6 colony-forming units (CFU)/mL as previously described.[12],[15],[16] Briefly, we have previously determined the CFU/mL for each bacterium at OD600 = 0.075 for 200 μL of bacterial culture in a 96-well plate. The OD600 of each overnight culture was determined, and then each culture was diluted to OD600 = 0.075. Cultures were further diluted to achieve 1 × 10^6 CFU/mL solutions.
(§5) Aliquots of the 20 mg/mL peptide stock solutions were diluted to make a 64 μg/mL solution in Mueller-Hinton broth containing 0.002% polysorbate 80 and a 64 μg/mL solution in brain heart infusion broth containing 0.002% polysorbate 80. The solutions were mixed by pipetting to ensure homogeneity. A 200-μL aliquot of a 64 μg/mL solution was transferred to a 96-well plate. 2-fold serial dilutions were made with media containing 0.002% polysorbate 80 across the 96-well plate to achieve a final volume of 100 μL in each well (initial concentrations ranging from 64 to 0.0625 μg/mL). A 100-μL aliquot of a 1 × 10^6 CFU/mL bacterial solution was added to each well in the series, resulting in final bacterial concentrations of 5 × 10^5 CFU/mL in each well. As 100 μL of bacteria were added to each well, the concentration of peptide was also diluted 2-fold (final concentrations ranging from 32 μg/mL to 0.03125 μg/mL). Each plate was covered with a lid and incubated at 37 °C for 16 h. The optical density measurements were measured at 600 nm using a 96-well UV–vis plate reader (MultiSkan GO, Thermo Scientific). The MIC values were taken as the lowest concentration that had no bacterial growth. MIC assays for each compound were performed in triplicate to ensure reproducibility.

[2] = test system: Staphylococcus aureus (MRSA) ATCC 700698; experiment: microbe, parasite or virus in culture; conditions: ATCC 700698, 16 h
Source text: as §1, §2, §3, §4, §5

[3] = test system: Bacillus subtilis ATCC 6051; experiment: microbe, parasite or virus in culture; conditions: ATCC 6051, 16 h
Source text: as §1, §2, §3, §4, §5

[4] = test system: Escherichia coli ATCC 10798; experiment: microbe, parasite or virus in culture; conditions: ATCC 10798, 16 h
Source text: as §1, §2, §3, §4, §5

[5] = test system: Staphylococcus epidermidis ATCC 14990; experiment: microbe, parasite or virus in culture; conditions: ATCC 14990, 16 h
Source text: as §1, §2, §3, §4, §5

[6] = test system: all bacteria tested; experiment: MIC broth microdilution assay, summary over all bacteria; conditions: concentration range tested up to 32 μg/mL
Source text: as §1, §2, §3
as §4, with “After overnight incubation, each culture was diluted with the appropriate media (containing 0.002% polysorbate 80) to 1 × 10^6 colony-forming units (CFU)/mL as previously described.[12],[15],[16]” left out, “Cultures were further diluted to achieve 1 × 10^6 CFU/mL solutions.” left out
Aliquots of the 20 mg/mL peptide stock solutions were diluted to make a 64 μg/mL solution in Mueller-Hinton broth containing 0.002% polysorbate 80 and a 64 μg/mL solution in brain heart infusion broth containing 0.002% polysorbate 80. […] The optical density measurements were measured at 600 nm using a 96-well UV–vis plate reader (MultiSkan GO, Thermo Scientific). […]

MIC Staphylococcus aureus (MSSA) ATCC 29213 [1]: >32 µg/mL | MIC Staphylococcus aureus (MRSA) ATCC 700698 [2]: >32 µg/mL | MIC Bacillus subtilis ATCC 6051 [3]: >32 µg/mL | MIC Escherichia coli ATCC 10798 [4]: >32 µg/mL | MIC Staphylococcus epidermidis ATCC 14990 [5]: >32 µg/mL
Structure (SMILES): CC[C@H](C)[C@H](NC(=O)[C@H](CCC(N)=O)NC(=O)[C@H](Cc1ccccc1)NC)C(=O)N[C@@H](CO)C(=O)N[C@H](C(=O)N[C@@H](CCC(N)=O)C(=O)N[C@H](C(=O)OC[C@H](N)C(=O)N[C@H]1C(=O)N[C@@H](C)C(=O)N[C@@H](CCCNC(=N)N)C(=O)N[C@@H]([C@@H](C)CC)C(=O)O[C@H]1C)[C@@H](C)CC)[C@@H](C)CC [compound 9, N-Me-Phe0,Gln1,Ile4,Gln5,[Ile6-O-Ser7],Arg10-teixobactin] (I: H-[NMeF]QISIQI / II: H-S[dT]ARI; ester I:C-II:1, II:2-II:C)
antibiotic activity in words against all bacteria tested [6]: completely inactive
